The source made the active and inactive calls. The rule behind the calls is not given here. Where a SMILES comes first, the peptide text is derived from it. Bridges are numbered along the chain shown (N, C = ends).
How the values were obtained:
Type in all cases: cell-based
Details in all cases: A-431
[1] = target: Epidermal growth factor receptor (Homo sapiens) (UniProt P00533); assay: Reduction in EGF-induced dimerization of human EGFR in A431 cells at 0.01 to 1 uM preincubated for 30 mins before EGF challenge by SDS-PAGE
[2] = target: Epidermal growth factor receptor (Homo sapiens) (UniProt P00533); assay: Inhibition of EGF-stimulated human EGFR in intact A431 cells assessed as suppression of residual autophosphorylation at 0.1 uM preincubated for 3 hrs before EGF challenge by SDS-PAGE relative to control
[3] = target: Epidermal growth factor receptor (Homo sapiens) (UniProt P00533); assay: Inhibition of EGF-stimulated human EGFR in intact A431 cells assessed as suppression of residual autophosphorylation at 10 uM preincubated for 3 hrs before EGF challenge by SDS-PAGE relative to control
[4] = target: Epidermal growth factor receptor (Homo sapiens) (UniProt P00533); assay: Inhibition of EGF-stimulated human EGFR in intact A431 cells assessed as suppression of residual autophosphorylation at 1 uM preincubated for 3 hrs before EGF challenge by SDS-PAGE relative to control
[5] = target: Epidermal growth factor receptor (Homo sapiens) (UniProt P00533); assay: Reduction in EGF-induced dimerization of human EGFR in A431 cells at 1 uM preincubated for 30 mins before EGF challenge by SDS-PAGE relative to control; parameters: scale not given: the % may be the effect or the level left
[6] = target: Epidermal growth factor receptor (Homo sapiens) (UniProt P00533); assay: Reduction in EGF-induced dimerization of human EGFR in A431 cells preincubated for 30 mins before EGF challenge by SDS-PAGE
[7] = target: Epidermal growth factor receptor (Homo sapiens) (UniProt P00533); assay: Inhibition of EGF-induced dimerization of human EGFR in A431 cells at >1 uM preincubated for 30 mins before EGF challenge by SDS-PAGE

Epidermal growth factor receptor (Homo sapiens), sequence (P00533 whole entry): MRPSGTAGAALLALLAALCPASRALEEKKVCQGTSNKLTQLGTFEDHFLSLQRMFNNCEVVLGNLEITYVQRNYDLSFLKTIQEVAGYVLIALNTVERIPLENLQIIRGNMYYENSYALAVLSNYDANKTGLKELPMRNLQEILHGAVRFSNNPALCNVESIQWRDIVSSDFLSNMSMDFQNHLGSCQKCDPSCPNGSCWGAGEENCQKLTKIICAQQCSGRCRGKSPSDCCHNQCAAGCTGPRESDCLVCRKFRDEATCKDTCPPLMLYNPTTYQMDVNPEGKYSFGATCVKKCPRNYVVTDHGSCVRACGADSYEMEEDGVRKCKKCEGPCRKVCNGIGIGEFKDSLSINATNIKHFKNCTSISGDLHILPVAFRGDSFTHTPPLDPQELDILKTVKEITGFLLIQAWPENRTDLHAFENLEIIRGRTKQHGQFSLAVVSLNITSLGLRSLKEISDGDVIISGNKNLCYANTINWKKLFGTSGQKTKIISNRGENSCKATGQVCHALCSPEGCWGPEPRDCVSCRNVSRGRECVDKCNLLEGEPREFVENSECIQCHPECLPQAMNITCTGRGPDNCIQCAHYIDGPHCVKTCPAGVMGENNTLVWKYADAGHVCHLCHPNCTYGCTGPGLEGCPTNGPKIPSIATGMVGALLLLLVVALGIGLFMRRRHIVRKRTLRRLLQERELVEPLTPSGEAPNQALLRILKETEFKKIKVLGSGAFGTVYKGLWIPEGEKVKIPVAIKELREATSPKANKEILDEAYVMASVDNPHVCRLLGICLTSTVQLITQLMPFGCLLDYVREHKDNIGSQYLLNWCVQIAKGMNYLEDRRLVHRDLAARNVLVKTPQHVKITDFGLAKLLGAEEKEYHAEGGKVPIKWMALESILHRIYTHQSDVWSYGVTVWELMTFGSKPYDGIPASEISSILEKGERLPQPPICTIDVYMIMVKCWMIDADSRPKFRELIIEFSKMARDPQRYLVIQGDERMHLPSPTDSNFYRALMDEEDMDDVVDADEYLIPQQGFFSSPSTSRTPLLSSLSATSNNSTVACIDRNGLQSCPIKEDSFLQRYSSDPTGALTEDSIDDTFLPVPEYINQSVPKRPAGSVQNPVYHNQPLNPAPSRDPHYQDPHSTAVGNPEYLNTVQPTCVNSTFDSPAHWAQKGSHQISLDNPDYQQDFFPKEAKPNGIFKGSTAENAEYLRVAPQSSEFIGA

SMILES | Activity [1] | Activity [2] [%] | Activity [3] [%] | Activity [4] [%] | Activity [5] [%] | Activity [6] | Activity [7]
CSCC[C@H](NC(=O)[C@H](CCC(N)=O)NC(=O)[C@H](Cc1ccc(O)cc1)NC(=O)[C@@H](NC(=O)[C@@H](NC(=O)[C@@H]1CCCN1C(=O)[C@H](CC(N)=O)NC(=O)[C@H](Cc1ccc(O)cc1)NC(=O)[C@@H](N)CS)[C@@H](C)O)[C@@H](C)O)C(=O)N[C@@H](CS)C(=O)O (H-CYNPTTYQMC-OH) | inactive |  |  |  |  |  | 
CSCC[C@@H]1NC(=O)[C@H](CCC(N)=O)NC(=O)[C@H](Cc2ccc(O)cc2)NC(=O)[C@H]([C@@H](C)O)NC(=O)[C@H]([C@@H](C)O)NC(=O)[C@@H]2CCCN2C(=O)[C@H](CC(N)=O)NC(=O)[C@H](Cc2ccc(O)cc2)NC(=O)[C@@H](N)CSSC[C@@H](C(=O)O)NC1=O (H-CYNPTTYQMC-OH; disulfide 1-10) |  | 61 | 30 | 51 | < 80 | Dose-dependent effect | inactive

Reference: ChEMBL document CHEMBL1158421, “Inhibitory effect of a dimerization-arm-mimetic peptide on EGF receptor activation” (Bioorg Med Chem Lett, 2009)
